Several values for one entry are separate records, joined by “and”; a condition that tells them apart may be missing. Identical values can stand only once.
What was measured:
[1] = tested on: penicillin hypersensitivity (patients); test: Clinical evaluation by 26 investigators: scratch/intradermal skin tests with PPL and Penicillin G (Tables IV-VII, IX-XI); assay type: in vivo, human; conditions: for TOTAL (+) No. / TOTAL (+) Percent of total positive: skin reactive penicillin allergy patients
Experimental: Twenty-six clinical investigators contributed a total of 1160 cases to the evaluation. Patients were tested according to a protocol as follows:
1. All patients being subjected to allergy investigation were to be tested for penicillin hypersensitivity. Two preparations were to be used. These are:
2. Penicillin G (Benzyl Penicillin) in a concentration of 10,000 units per cc.
For maximum safety, it was recommended that the tests first be done by the scratch technique. Intradermal tests were then to be done on those showing negative scratch tests. In cases where the penicillin sensitivity was suspected to be of a violent character, more dilute reagents were recommended at the discretion of the individual investigator.
A uniform technique was recommended for the performance of the intradermal tests. Only a minimal amount of testing reagent was to be injected so as to make a barely discernible intradermal bleb. The amount necessary for this injection is about 0.01 to 0.03 cc. It was recognized that the intrepretation of the test results is an important matter. The reactions were to be recorded in terms of (1) the time required for the appearance of a reaction, (2) the size of erythema and (3) the size of whealing. These were to be recorded as actual measurements. Some objective measurement of dermographism was also to be recorded.
It was also contemplated that all patients who were to be treated with penicillin be tested as recommended above, even though they had previously received penicillin with impunity.
A comprehensive clinical history was takan on each patient with particular regard to previous penicillin therapy, and reaction.
In order to properly analyze the data on such a large number of patients, a data processing system was utilized.
Table IV summarizes the skin test results on all patients, without regard to other specific factors. […] It will also be noted that a significant number of patients reacted only to PPL, and another group only to Pen G. Therefore, to detect the maximum number of reactors, both test reagents would be required. A technical problem was classification of the ambiguous or borderline reactors, particularly those showing only erythema. Attempts to correlate the appearance of the erythematous flare without wheal formation with a history of penicillin hypersensitivity were unsuccessful. In some instances, however, erythema without wheal did appear to be associated with hypersensitivity to the antibiotic. The time of development of erythema without wheal varied widely from a few minutes to more than 7 days which also made its importance questionable. as a diagnostic sign. For these reasons erythema alone responses were counted with the negatives. In some instances, however, data will be presented in which erythema without wheal are counted as positive responses (figures appearing in parentheses).

[2] = tested on: penicillin hypersensitivity (patients); test: Comparison of skin tests with penicilloyl-poly-L-lysine and penicillin G (Table III); assay type: in vivo, human; conditions: 1163 tested
Experimental: One of the uses for the conjugates of this invention is in skin testing for penicillin hypersensitivity. The conjugated compositions are prepared for skin testing by first dissolving the composition in buffered isotonic solutions, having a pH in the range from 7 to 8. For example, the conjugates prepared above may be diluted with aqueous solutions 0.15 M NaCl in 0.01 M phosphate, pH 7.6. In addition, other physiological salt solutions may be used.
Intradermal injections may be made of the foregoing solutions with a 26 guage needle, the volume injected may be generally about 0.01 to 0.03 cc. Alternatively, the conjugate may be applied by the scratch test technique. The development of a wheal at the injection site after about 20 minutes indicates a positive reaction, and penicillin hypersensitivity.
Penicillin hypersensitivity tests carried out with the conjugate compositions of this invention reflect the numerous advantages of penicillin hypersensitivity determinations made with such compositions. […] In Table II the distribution of skin reactions is shown by history of penicillin therapy and hypersensitivity. […] (See column 2, for example, showing the percentages of patients tested who had […] skin test.)

[3] = Group I (675 patients): penicillin Rx, no hypersensitivity, erythema only counted as negative
[4] = Group I (675 patients): penicillin Rx, no hypersensitivity, parentheses: erythema only (ambiguous) counted as positive
[5] = Group II (352 patients): penicillin Rx & hypersensitive, erythema only counted as negative
[6] = Group II (352 patients): penicillin Rx & hypersensitive, parentheses: erythema only (ambiguous) counted as positive
[7] = Group III (70 patients): no penicillin Rx in past, erythema only counted as negative
[8] = Group III (70 patients): no penicillin Rx in past, parentheses: erythema only (ambiguous) counted as positive
[9] = Group IV (56 patients): no data, erythema only counted as negative
[10] = Group IV (56 patients): no data, parentheses: erythema only (ambiguous) counted as positive
[11] = TOTALS (1153 patients), erythema only counted as negative
[12] = TOTALS (1153 patients), parentheses: erythema only (ambiguous) counted as positive
[13] = TOTALS, all patients (1153 tested), erythema only counted as negative
[14] = TOTALS, all patients (1153 tested), parentheses: erythema only (ambiguous) counted as positive
[15] = history of therapy: Multi Courses (177 tested)
[16] = history of therapy: One Course (249 tested)
[17] = history of therapy: One Dose (152 tested)
[18] = history of therapy: TOTALS (578 tested)
[19] = reason for testing: "Penicillin" (240 tested)
[20] = reason for testing: Other Substances (463 tested)
[21] = reaction between 30 minutes and 24 hours post therapy, erythema only counted as negative
[22] = reaction between 30 minutes and 24 hours post therapy, parentheses: erythema only (ambiguous) counted as positive
[23] = reaction more than 24 hours post therapy, erythema only counted as negative
[24] = reaction more than 24 hours post therapy, parentheses: erythema only (ambiguous) counted as positive
[25] = reaction within 30 minutes post therapy, erythema only counted as negative
[26] = reaction within 30 minutes post therapy, parentheses: erythema only (ambiguous) counted as positive
[27] = type of hypersensitivity reaction: Skin (309 tested)
[28] = type of hypersensitivity reaction: Visceral (43 tested)

CC1(C)S[C@@H]2[C@H](NC(=O)Cc3ccccc3)C(=O)N2[C@H]1C(=O)O [PG, Benzyl Penicillin, reference compound]
Skin Test (+) No. [1, 3]: 24 | Skin Test (+) Percent [1, 3]: 3.6% | Skin Test (-) No. [1, 3]: 651 | Skin Test (-) Percent [1, 3]: 96.4% | Skin Test (+) No. [1, 4]: 56 | Skin Test (+) Percent [1, 4]: 8.3% | Skin Test (-) No. [1, 4]: 619 | Skin Test (-) Percent [1, 4]: 91.7% | Skin Test (+) No. [1, 5]: 47 | Skin Test (+) Percent [1, 5]: 13.4% | Skin Test (-) No. [1, 5]: 305 | Skin Test (-) Percent [1, 5]: 86.6% | Skin Test (+) No. [1, 6]: 65 | Skin Test (+) Percent [1, 6]: 18.5% | Skin Test (-) No. [1, 6]: 287 | Skin Test (-) Percent [1, 6]: 81.5% | Skin Test (-) No. [1, 7]: 70 | Skin Test (-) Percent [1, 7]: 100.0% | Skin Test (+) No. [1, 8]: 5 | Skin Test (+) Percent [1, 8]: 7.1% | Skin Test (-) No. [1, 8]: 65 | Skin Test (-) Percent [1, 8]: 92.9% | Skin Test (+) No. [1, 9]: 1 | Skin Test (+) Percent [1, 9]: 1.8% | Skin Test (-) No. [1, 9]: 55 | Skin Test (-) Percent [1, 9]: 98.2% | Skin Test (+) No. [1, 10]: 3 | Skin Test (+) Percent [1, 10]: 5.3% | Skin Test (-) No. [1, 10]: 53 | Skin Test (-) Percent [1, 10]: 94.6% | SKIN TEST RESPONSE No. ([1]; No reactions (675 tested)): 24 | SKIN TEST RESPONSE Percent ([1]; No reactions (675 tested)): 3.6% | Skin Test (-) No. [1, 11]: 1081 | Skin Test (-) Percent [1, 11]: 93.8% | Skin Test (-) No. [1, 12]: 1024 | Skin Test (-) Percent [1, 12]: 88.8% | Skin Test (+) No. [1, 13]: 72 | Skin Test (+) Percent [1, 13]: 6.2% and 6.3% | Skin Test (+) No. [1, 14]: 129 | Skin Test (+) Percent [1, 14]: 11.2% | positive skin tests, patients positive/patients in group ([1]; delayed (after 24 hours) group): 17/144 | positive skin tests, percent of group ([1]; delayed (after 24 hours) group, 144 patients): 11.8% | Skin Reactions PPL- / PEN G- No. [1, 15]: 10 | Skin Reactions PPL- / PEN G- Percent [1, 15]: 5.6% | Skin Reactions PPL- / PEN G- No. [1, 16]: 8 | Skin Reactions PPL- / PEN G- Percent [1, 16]: 3.2% | Skin Reactions PPL- / PEN G- No. [1, 17]: 17 | Skin Reactions PPL- / PEN G- Percent [1, 17]: 11.2% | Skin Reactions PPL- / PEN G- No. [1, 18]: 35 | Skin Reactions PPL- / PEN G- Percent [1, 18]: 6.1% | positive skin tests, patients positive/patients in group ([1]; immediate reacting group (within 30 minutes)): 17/56 | positive skin tests, percent of group ([1]; immediate reacting group (within 30 minutes), 56 patients): 30.4% | percent of skin-test positive patients that would be missed if only this reagent were used as skin test antigen ([1]; immediate reactor group): 45% | Skin Test (+) No. [1, 19]: 24 | Skin Test (+) Percent [1, 19]: 10.0% | Skin Test (+) No. [1, 20]: 9 | Skin Test (+) Percent [1, 20]: 1.9% | safety of skin testing ([1]; scratch and intradermal skin testing of patients): safe | TOTAL (+) No. [1, 21]: 17 | TOTAL (+) Percent of total positive [1, 21]: 65.4% | TOTAL (+) No. [1, 22]: 21 | TOTAL (+) Percent of total positive [1, 22]: 67.7% | TOTAL (+) No. [1, 23]: 17 | TOTAL (+) Percent of total positive [1, 23]: 51.5% | TOTAL (+) Percent of total positive ([1]; reaction more than 24 hours post therapy, erythema only counted as negative, listed as Penicillin G): ≤ 51.5% | TOTAL (+) No. [1, 24]: 22 | TOTAL (+) Percent of total positive [1, 24]: 50.0% | TOTAL (+) No. [1, 25]: 17 | TOTAL (+) Percent of total positive [1, 25]: 54.8% | TOTAL (+) Percent of total positive ([1]; reaction within 30 minutes post therapy, erythema only counted as negative, listed as Pen G): 55% | TOTAL (+) Percent of total positive ([1]; reaction within 30 minutes post therapy, erythema only counted as negative, listed as Penicillin G): 54.8% | TOTAL (+) No. [1, 26]: 17 | TOTAL (+) Percent of total positive [1, 26]: 47.2% | SKIN TEST RESPONSE No. [1, 27]: 39 | SKIN TEST RESPONSE Percent [1, 27]: 12.6% | SKIN TEST RESPONSE No. [1, 28]: 14 | SKIN TEST RESPONSE Percent [1, 28]: 32.6% | POSITIVE SKIN TESTS % [2]: 14.3% | Positive Skin Tests, Number of Patients [2]: 166
